Source: US6852696B2, “Inhibitors of glycosaminoglycans” (The University of Texas System, priority 1999, dated 2005)

Legend:
[1] = tested on: HAase (from bovine testis); assay: HAase-mediated degradation of immobilized biotinylated HA; assay type: biochemical; settings: 500 μg/ml pretreatment
Experimental: FIGS. 5A-C. Impact of Pep-1 on HA degradation products. (FIG. 5A) 96 well plates were coated with biotinylated-HA (0.1 μg/ml) and pretreated with 500 μg/ml of Pep-1 (open circles), RP (closed circles), or PBS alone (triangles) for 3 hours. These plates were then incubated for 30 min in the presence of HAase (from bovine testis). After extensive wash, the amounts of remaining biotinylated HA on the plates were determined by addition of streptavidin-alkaline phosphatase followed by p-nitrophenyl phosphate substrate. The % HA digestion was calculated from the optical densities. The data shown are the means+/−s.e.m.from triplicate samples analyzed with a hyperbolic model. (FIG. 5B) The impact of Pep-1 on HA digestion and on cell adhesion was examined in parallel using the HA-coated plates prepared simultaneously. Pep-1, RP, or PBS alone was added to the HA-coated plates as above and their effects on HAase-mediated HA degradation and on the adhesion of ^35S-labeled BW5147 thymoma cells were compared. […] Results are expressed as the means+/−s.e.m.from triplicate samples.
To test the impact of Pep-1 on HA degradation, the present inventors developed a 96 well-based assay in which biotinylated HA was immobilized onto the plates and treated with HAase. The amounts of HA that remained attached to the wells was then determined by addition of streptavidin-conjugated alkaline phosphatase (FIG. 5A).

Langerhans cells (LC) = settings: co-pending application 60/126,475; cited from earlier work

For GAHWQFNALTVR [Pep-1], the “effect on HAase-mediated HA degradation” value [1] is given as “failed to affect the degradation of HA substrates” and the “inhibition of sensitization phase / hapten-triggered LC migration” value (Langerhans cells (LC)) is given as “blocking hapten-triggered migration of Langerhans cells”.
